We go through 17 molecules from ChEMBL document CHEMBL1153983, “Anti-HBV agents. Part 2: synthesis and in vitro anti-hepatitis B virus activities of alisol A derivatives” (Bioorg Med Chem Lett, 2009).

The IC50 is the midpoint of a concentration-inhibition curve. The CC50 is the concentration that lowers cell viability or growth by half. Lower therefore signals harm at low concentration.

The subject of data set [1] is Hepatitis B virus. As to the kind of experiment: Antiviral activity against HBV assessed as inhibition of viral surface antigen secretion. Format: functional, organism-based.
A short description of data set [2]: Selectivity index, ratio of CC50 for human HepG2(2.2.15) cells to IC50 for HBV surface antigen secretion. Format: functional.
Data set [3] relates to Hepatitis B virus. The data set is described as follows: Antiviral activity against HBV assessed as inhibition of viral early antigen secretion. Format: functional, organism-based.
Data set [4] in a line: Selectivity index, ratio of CC50 for human HepG2(2.2.15) cells to IC50 for HBV early antigen secretion. Format: functional.
The nature of data set [5]: Cytotoxicity against human HepG2(2.2.15) cells. It is filed as cell-based.

As for `CCOCC(=O)O[C@@H](C[C@@H](C)C1=C2C[C@H](OC(=O)COCC)[C@H]3[C@@]4(C)CCC(=O)C(C)(C)[C@@H]4CC[C@]3(C)[C@@]2(C)CC1)[C@@H](OC(=O)COCC)C(C)(C)OC(=O)COCC`, the half-maximal inhibitory concentration (IC50) in data set [1] was 200 µM; in data set [3], 260 µM. The “Ratio CC50/IC50” value in data set [2] is recorded as over 11; in data set [4], over 8.7. The molecule further yielded a CC50 in data set [5] of over 2300 µM.

As for `COCC(=O)O[C@@H](C[C@@H](C)C1=C2C[C@H](OC(=O)COC)[C@H]3[C@@]4(C)CCC(=O)C(C)(C)[C@@H]4CC[C@]3(C)[C@@]2(C)CC1)[C@@H](OC(=O)COC)C(C)(C)OC(=O)COC`, the IC50 in data set [1] was found to be 28 µM; in data set [3] it was 27 µM. Besides, the figures for the “Ratio CC50/IC50” value in data set [2] and in data set [4] were over 90 and over 93, respectively. In data set [5], this molecule had a CC50 of over 2500 µM.

On to `C[C@H](C[C@H](OC(=O)/C=C/c1ccccc1Cl)[C@@H](OC(=O)/C=C/c1ccccc1Cl)C(C)(C)O)C1=C2C[C@H](OC(=O)/C=C/c3ccccc3Cl)[C@H]3[C@@]4(C)CCC(=O)C(C)(C)[C@@H]4CC[C@]3(C)[C@@]2(C)CC1`, for which the results for the IC50 in data set [1] and in data set [3] were 950 µM and over 1300 µM, respectively. In addition, the “Ratio CC50/IC50” value in data set [2] is given as over 1.3. This molecule also showed a CC50 in data set [5] of over 1300 µM.

As for `C=C(C)[C@H](OC(=O)COC(C)=O)[C@H](C[C@@H](C)[C@]12CC[C@@]3(C)[C@@]1(C[C@H](OC(=O)COC(C)=O)[C@H]1[C@@]4(C)CCC(=O)C(C)(C)[C@@H]4CC[C@@]13C)O2)OC(=O)COC(C)=O`, the IC50 in data set [1] is 51 µM; in data set [3] it was over 1600 µM. The “Ratio CC50/IC50” value in data set [2] is given as over 31. The molecule also had a CC50 in data set [5] of over 1600 µM.

As for `COCC(=O)O[C@@H](C[C@@H](C)C1=C2C[C@H](OC(=O)COC)[C@H]3[C@@]4(C)CCC(=O)C(C)(C)[C@@H]4CC[C@]3(C)[C@@]2(C)CC1)[C@@H](OC(=O)COC)C(C)(C)O`, the figures for the half-maximal inhibitory concentration (IC50) in data set [1] and in data set [3] were 140 µM and over 400 µM, respectively. For the same molecule, in data set [2], the “Ratio CC50/IC50” value is 2.9. In data set [5], this molecule had a CC50 of 400 µM.

`COCC(=O)O[C@@H](C[C@@H](C)[C@]12CC[C@@]3(C)[C@@]1(C[C@H](OC(=O)COC)[C@H]1[C@@]4(C)CCC(=O)C(C)(C)[C@@H]4CC[C@@]13C)O2)[C@@H](OC(=O)COC)C(C)(C)OC(=O)COC`: the 50% inhibitory concentration (IC50) in data set [1] was 110 µM; in data set [3], over 1600 µM. For the same molecule, the “Ratio CC50/IC50” value in data set [2] is over 7.3. The molecule also had a CC50 in data set [5] of over 800 µM.

With `C=C(C)[C@H](OC(=O)COC)[C@H](C[C@@H](C)C1=C2C[C@H](OC(=O)COC)[C@H]3[C@@]4(C)CCC(=O)C(C)(C)[C@@H]4CC[C@]3(C)[C@@]2(C)CC1)OC(=O)COC`, the IC50 in data set [1] is 68 µM; in data set [3], 120 µM. Further, the “Ratio CC50/IC50” value in data set [2] is over 42; in data set [4], over 24. In data set [5], this molecule returned a 50% cytotoxic concentration (CC50) of over 2800 µM.

`C[C@H](C[C@H](OC(=O)CNC(=O)OC(C)(C)C)[C@@H](OC(=O)CNC(=O)OC(C)(C)C)C(C)(C)O)C1=C2C[C@H](OC(=O)CNC(=O)OC(C)(C)C)[C@H]3[C@@]4(C)CCC(=O)C(C)(C)[C@@H]4CC[C@]3(C)[C@@]2(C)CC1`: the figures for the concentration for half-maximal inhibition (IC50) in data set [1] and in data set [3] were 320 µM and 94 µM, respectively. The “Ratio CC50/IC50” value in data set [2] is given as over 4.7; in data set [4], over 16. Moreover, in data set [5], the half-maximal cytotoxic concentration (CC50) is over 1500 µM.

With `C=C(C)[C@H](OC(=O)COC)[C@H](C[C@@H](C)[C@]12CC[C@@]3(C)[C@@]1(C[C@H](OC(=O)COC)[C@H]1[C@@]4(C)CCC(=O)C(C)(C)[C@@H]4CC[C@@]13C)O2)OC(=O)COC`, the results for the IC50 in data set [1] and in data set [3] were 44 µM and over 1300 µM, respectively. In data set [2], the “Ratio CC50/IC50” value is recorded as over 29. The CC50 in data set [5] is over 1300 µM.

Turning to `COCC(=O)O[C@@H](C[C@@H](C)[C@]12CC[C@@]3(C)[C@@]1(C[C@H](OC(=O)COC)[C@H]1[C@@]4(C)CCC(=O)C(C)(C)[C@@H]4CC[C@@]13C)O2)[C@@H](OC(=O)COC)C(C)(C)O`, the IC50 in data set [1] is 900 µM; in data set [3] it was over 1100 µM. In addition, the “Ratio CC50/IC50” value in data set [2] is 1.2; in data set [4], under 1. Further, half-maximal cytotoxicity in data set [5] (CC50) was put at 1100 µM.

For the molecule `CC(=O)NCC(=O)O[C@@H](C[C@@H](C)C1=C2C[C@H](OC(=O)CNC(C)=O)[C@H]3[C@@]4(C)CCC(=O)C(C)(C)[C@@H]4CC[C@]3(C)[C@@]2(C)CC1)[C@@H](OC(=O)CNC(C)=O)C(C)(C)O`, the IC50 in data set [1] was 290 µM; in data set [3] it was 880 µM. Further, the “Ratio CC50/IC50” value in data set [2] and in data set [4] was under 1 throughout. In data set [5], this molecule displayed a CC50 of 270 µM.

Consider `C=C(C)[C@H](OC(=O)COCC)[C@H](C[C@@H](C)[C@]12CC[C@@]3(C)[C@@]1(C[C@H](OC(=O)COCC)[C@H]1[C@@]4(C)CCC(=O)C(C)(C)[C@@H]4CC[C@@]13C)O2)OC(=O)COCC`, for which the IC50 in data set [1] was 20 µM; in data set [3], over 1800 µM. Further, the “Ratio CC50/IC50” value in data set [2] is over 90. Further, the CC50 in data set [5] was over 1800 µM.

As to `C=C(C)[C@H](OC(=O)COCC)[C@H](C[C@@H](C)C1=C2C[C@H](OC(=O)COCC)[C@H]3[C@@]4(C)CCC(=O)C(C)(C)[C@@H]4CC[C@]3(C)[C@@]2(C)CC1)OC(=O)COCC`, the half-inhibitory concentration (IC50) in data set [1] amounted to 20 µM; in data set [3], 30 µM. The results for the “Ratio CC50/IC50” value in data set [2] and in data set [4] were over 60 and over 40, respectively. In data set [5], this molecule yielded a CC50 of over 1200 µM.

`CCOCC(=O)O[C@@H](C[C@@H](C)C1=C2C[C@H](OC(=O)COCC)[C@H]3[C@@]4(C)CCC(=O)C(C)(C)[C@@H]4CC[C@]3(C)[C@@]2(C)CC1)[C@@H](OC(=O)COCC)C(C)(C)O`: the IC50 in data set [1] stood at 400 µM; in data set [3], 2000 µM. Further, the “Ratio CC50/IC50” value is listed as over 6.5 in data set [2] and over 1.3 in data set [4]. Further, in data set [5], the 50% cytotoxic concentration (CC50) is over 2600 µM.

Regarding `C[C@H](C[C@H](OC(=O)c1ccc(Br)cc1)[C@@H](OC(=O)c1ccc(Br)cc1)C(C)(C)O)C1=C2C[C@H](OC(=O)c3ccc(Br)cc3)[C@H]3[C@@]4(C)CCC(=O)C(C)(C)[C@@H]4CC[C@]3(C)[C@@]2(C)CC1`, the IC50 in data set [1] and in data set [3] was over 650 µM throughout. Further, the “Ratio CC50/IC50” value in data set [2] and in data set [4] was under 1 in each case. This molecule also yielded a CC50 in data set [5] of 650 µM.

Turning to `CC(=O)OCC(=O)O[C@@H](C[C@@H](C)C1=C2C[C@H](OC(=O)COC(C)=O)[C@H]3[C@@]4(C)CCC(=O)C(C)(C)[C@@H]4CC[C@]3(C)[C@@]2(C)CC1)[C@@H](OC(=O)COC(C)=O)C(C)(C)O`, the half-inhibitory concentration (IC50) was under 38 µM in data set [1] and over 51 µM in data set [3]. The “Ratio CC50/IC50” value was over 1.3 in data set [2] and under 1 in data set [4]. In data set [5], this molecule displayed a CC50 of 51 µM.

As for `C[C@H](C[C@H](OC(=O)CN1C(=O)c2ccccc2C1=O)[C@@H](OC(=O)CN1C(=O)c2ccccc2C1=O)C(C)(C)O)C1=C2C[C@H](OC(=O)CN3C(=O)c4ccccc4C3=O)[C@H]3[C@@]4(C)CCC(=O)C(C)(C)[C@@H]4CC[C@]3(C)[C@@]2(C)CC1`, the results for the half-maximal inhibitory concentration (IC50) in data set [1] and in data set [3] were 1200 µM and 140 µM, respectively. In addition, the figures for the “Ratio CC50/IC50” value in data set [2] and in data set [4] were over 1.2 and over 11, respectively. In data set [5], this molecule came in with a CC50 of over 1500 µM.
